Experiment: Concentration inhibiting Clostridium histolyticum collagenase.

With CC[C@@]1(O)C[C@H](O[C@H]2C[C@H](N(C)C)[C@H](O[C@H]3C[C@H](O)[C@H](O[C@H]4CCC(=O)[C@H](C)O4)[C@H](C)O3)[C@H](C)O2)c2c(cc3c(c2O)C(=O)c2c(O)cccc2C3=O)[C@H]1C(=O)OC [ACLACINOMYCIN A] the IC50 was 9900 nM.

Experiment: as above
Remark: another data set of the same source

Compared with COC1C(O[C@@H]2c3c(cc4c(c3O)C(=O)c3c(O)cccc3C4=O)C(=O)[C@@](C)(O)[C@H]2OC)OC(C)C(O)C1O (stereo not given in full), COC1C(O[C@@H]2c3c(cc4c(c3O)C(=O)c3c(O)cccc3C4=O)C(=O)[C@](C)(O)[C@H]2OC)OC(C)C(O)C1O (stereo not given in full) is 8.1-fold higher in IC50: 370 nM for the first, 3000 nM for the second. The first is the more potent here.

First: COC1C(O[C@@H]2c3c(cc4c(c3O)C(=O)c3c(O)c(N(C)C)cc(N(C)C)c3C4=O)C(=O)[C@@](C)(O)[C@H]2OC)OC(C)C(O)C1O (stereo not given in full)
Second: COC1C(O[C@@H]2c3c(cc4c(c3O)C(=O)c3c(ccc(N(C)C)c3O)C4=O)C(=O)[C@@](C)(O)[C@H]2OC)OC(C)C(O)C1O (stereo not given in full)
The IC50 of the first is higher: over 100000 nM for the first, 2000 nM for the second. The second is the more potent here.

Going from COC1C(O[C@@H]2c3c(cc4c(c3O)C(=O)c3c(O)cccc3C4=O)C(=O)[C@@](C)(O)[C@H]2OC)OC(C)C(O)C1O[Si](C)(C)C(C)(C)C (stereo not given in full) to COC1C(C)OC(O[C@@H]2c3c(cc4c(c3O)C(=O)c3c(O)cccc3C4=O)C(=O)[C@@](C)(O)[C@H]2OC)C(OC)C1OC (stereo not given in full), the IC50 falls from 17000 nM to 670 nM (25-fold). The second is the more potent here.

Going from CO[C@H]1[C@H](O)c2c(cc3c(c2O)C(=O)c2c(O)cccc2C3=O)C(=O)[C@@]1(C)O to COC1C(O[C@@H]2c3c(cc4c(c3O)C(=O)c3c(O)cccc3C4=O)C(=O)[C@@](C)(O)[C@H]2OC)OC(C)C(OC(C)=O)C1OC(C)=O (stereo not given in full), the IC50 rises from 19000 nM to over 100000 nM.

For CCOP(=O)(OCC)O[C@]1(C)C(=O)c2cc3c(c(O)c2[C@@H](OC2OC(C)C(O)C(O)C2OC)[C@@H]1OC)C(=O)c1c(O)cccc1C3=O (stereo not given in full), the IC50 was 220 nM.

Source: BindingDB's records for doi:10.1021/jm00093a008 (Technical University of Denmark, 1992)
